Results reported in patent US20050058611A1, “Preventing and/or combating collagen fiber degradation induced under conditions of natural exposure to sunlight” (L'OREAL, priority 2003, published 2005).

Tests used:
[1] = tested on: production of MMP-1 by normal human epidermal keratinocytes; assay: MMP-1 production by normal human epidermal keratinocytes cultured on plastic, ELISA; format: cell-based; details: TPA 20 ng/ml, positive control; cell culture supernatant 24 hours after treatment
Protocol: FIG. 5 illustrates the production of MMP-1 by normal human epidermal keratinocytes. The cells cultured on plastic are exposed to SSR or treated with TPA (20 ng/ml). The MMP-1 content is evaluated by ELISA 24 hours after treatment in the cell culture supernatant.
Human keratinocytes are isolated from normal human skin (breast surgery) and cultured on a nourishing layer of mitomycin-treated 3T3 mouse fibroblasts.
The MMP-1 content is measured by ELISA (Biotrak kit RPN 2610, Amersham Biotech, France) according to the supplier's instructions.
To determine whether the irradiation of SSR type could also modulate the production of MMP-1 by keratinocytes growing on plastic, the cells were exposed to an SSR radiation. The MMP-1 extracellular contents were quantified 24 hours after UV radiation.

[2] = tested on: production of MMP-1 by normal human fibroblasts; assay: Keratinocyte conditioned medium transferred onto fibroblasts; MMP-1 production by ELISA; format: cell-based; details: for Production of MMP-1: sodium butyrate 3 mM, fibroblast culture supernatant 24 hours after transfer
Description: Normal human keratinocytes cultured as a monolayer on plastic were subjected to a UV-B radiation (10 mJ/cm^2). The experiment may also be performed in the presence of an SSR as defined in Example 1.
A Philips TL 20 W/12 tube equipped with a Kodacel filter to remove the wavelengths below 290 nm is used as UV-B source.
Just before irradiation, the culture medium of the sub-confluent cells (80-90% of confluence) is replaced with a PBS phosphate buffer to avoid the generation of phototoxic products by the medium. Under these conditions, no loss of viability of the cells is observed at the UV doses used.
After irradiation, the cells were placed in contact with an MEM culture medium free of serum and of growth factor, which are known to interfere with the detection or production of MMP-1, containing or not containing sodium butyrate NaBu (3 mM).
The conditioned medium of the keratinocytes (irradiated or not, in the presence or absence of sodium butyrate) was taken up 24 hours after irradiation and placed in contact with normal human fibroblasts.
The production of MMP-1 detected 24 hours later in the fibroblast culture supernatant was quantified by means of the “Biotrak MMP-1 human ELISA system” detection kit sold by Amersham, according to the supplier's indications.
The results are read using a LabSystems microplate reader equipped with a 450 nm filter.
The amount of MMP-1 is calculated relative to a calibration range prepared with a standard supplied with the kit, and is expressed in ng/ml.

Structure (SMILES) | MMP-1 production by keratinocytes [1] | Effect on the photoinduced stimulation of MMP-1 production ([2]; UV-B irradiated keratinocyte conditioned medium) | Production of MMP-1 ([2]; irradiated (UV-B 10 mJ/cm^2) keratinocyte conditioned medium) [ng/mL] | Inhibition of basal production of MMP-1 (factor) ([2]; non-irradiated condition, versus control conditioned medium) | Production of MMP-1 ([2]; non-irradiated keratinocyte conditioned medium) [ng/mL]
CCCCCCCCCCCCCC(=O)O[C@@H]1[C@@H](C)[C@@]2(O)[C@@H](C=C(CO)C[C@]3(O)C(=O)C(C)=C[C@@H]23)[C@H]2C(C)(C)[C@]12OC(C)=O [TPA] | leads to an accumulation of MMP-1 production |  |  |  | 
CCCC(=O)[O-].[Na+] [sodium butyrate] |  | capable of preventing this stimulatory effect on MMP-1 production | 16.97 ± 3.7 | 3 | 4.84 ± 0.36
